From PubChem BioAssay (NCI)
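Five concentrations, 48 hours, 96-well plates. TGI: concentration producing complete growth inhibition.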

Legend:
Experiment in all cases: NCI anticancer screen, dose series, 48 h
[1] = system: SK-MEL-28 melanoma
[2] = system: OVCAR-5 ovarian
[3] = system: SF-268 CNS
[4] = system: A549 NSCLC
[5] = system: T-47D breast
[6] = system: NCI-H226 lung
[7] = system: A498 renal
[8] = system: SF-539 CNS
[9] = system: COLO 205 colon
[10] = system: NCI-H522 lung
[11] = system: U251 CNS
[12] = system: HS 578T breast
[13] = system: HOP-62 NSCLC
[14] = system: SK-MEL-2 melanoma
[15] = system: EKVX NSCLC
[16] = system: MCF7 breast
[17] = system: SW-620 colon
[18] = system: MDA-MB-231 breast
[19] = system: SK-MEL-5 melanoma
[20] = system: HCT-15 colon
[21] = system: RPMI-8226 leukemia
[22] = system: OVCAR-3 ovarian
[23] = system: KM12 colon
[24] = system: LOX IMVI melanoma
[25] = system: IGROV1 ovarian
[26] = system: MALME-3M melanoma
[27] = system: SNB-19 CNS
[28] = system: NCI/ADR-RES ovarian
[29] = system: MDA-MB-435
[30] = system: NCI-H23 lung
[31] = system: DU-145 prostate
[32] = system: HT29 colon
[33] = system: OVCAR-8 ovarian
[34] = system: SN12C renal
[35] = system: HL-60(TB) leukemia
[36] = system: K-562 leukemia
[37] = system: CCRF-CEM leukemia
[38] = system: ACHN renal
[39] = system: PC-3 prostate
[40] = system: RXF 393 renal
[41] = system: HCC-2998 colon
[42] = system: NCI-H460 lung
[43] = system: M14 melanoma
[44] = system: SNB-75 CNS
[45] = system: MDA-N
[46] = system: UO-31 renal
[47] = system: MOLT-4 leukemia
[48] = system: HOP-92 NSCLC
[49] = system: UACC-257 melanoma
[50] = system: HCT-116 colon
[51] = system: OVCAR-4 ovarian
[52] = system: SK-OV-3 ovarian
[53] = system: 786-0 renal
[54] = system: SF-295 CNS
[55] = system: CAKI-1 renal
[56] = system: TK-10 renal
[57] = system: SR leukemia

CC(=O)OC/C=C\Cn1ncc(=O)[nH]c1=O
TGI [1]: 50.2 µM
TGI [2]: 32.3 µM
TGI [3]: 36.7 µM
TGI [4]: 58.9 µM
TGI [5]: 69.9 µM
TGI [6]: 36 µM
TGI [7]: 31.9 µM
TGI [8]: 35.7 µM
TGI [9]: 37.9 µM
TGI [10]: 32.4 µM
TGI [11]: 28.2 µM
TGI [12]: > 100 µM
TGI [13]: 43.9 µM
TGI [14]: 40.2 µM
TGI [15]: 38.8 µM
TGI [16]: 45.1 µM
TGI [17]: 40.5 µM
TGI [18]: 68 µM
TGI [19]: 26.7 µM
TGI [20]: 37.5 µM
TGI [21]: 31.4 µM
TGI [22]: 69.3 µM
TGI [23]: 31.3 µM
TGI [24]: 13.3 µM
TGI [25]: 42.5 µM
TGI [26]: 31.5 µM
TGI [27]: > 100 µM
TGI [28]: 50.6 µM
TGI [29]: 39.3 µM
TGI [30]: 28.9 µM
TGI [31]: 42.8 µM
TGI [32]: 29.9 µM
TGI [33]: 66.1 µM
TGI [34]: 42 µM
TGI [35]: 30.1 µM
TGI [36]: 54.9 µM
TGI [37]: 50.4 µM
TGI [38]: 43.8 µM
TGI [39]: 36 µM
TGI [40]: 37.1 µM
TGI [41]: 35 µM
TGI [42]: 48.7 µM
TGI [43]: 46.8 µM
TGI [44]: 33.9 µM
TGI [45]: 31.8 µM
TGI [46]: 37.5 µM
TGI [47]: 44 µM
TGI [48]: 30.6 µM

O=C(CCl)N1CCN(c2ccccn2)CC1
TGI [1]: 41.6 µM
TGI [49]: 65.5 µM
TGI [50]: > 100 µM
TGI [2]: 35.1 µM
TGI [3]: 63.8 µM
TGI [4]: > 10 µM
TGI [5]: 31.7 µM
TGI [7]: 31.4 µM
TGI [51]: 31 µM
TGI [9]: 47.4 µM
TGI [11]: 33.9 µM
TGI [12]: > 100 µM
TGI [13]: 46.2 µM
TGI [15]: 48.6 µM
TGI [16]: 53 µM
TGI [17]: 51.6 µM
TGI [19]: 35 µM
TGI [20]: > 10 µM
TGI [21]: > 100 µM
TGI [23]: 94 µM
TGI [25]: 45.7 µM
TGI [26]: 31.8 µM
TGI [27]: > 100 µM
TGI [28]: 57.7 µM
TGI [30]: 39.9 µM
TGI [52]: > 100 µM
TGI [31]: > 100 µM
TGI [53]: 35.1 µM
TGI [32]: 32.3 µM
TGI [33]: 60.8 µM
TGI [35]: 49.6 µM
TGI [36]: > 100 µM
TGI [37]: 69.2 µM
TGI [38]: 61.2 µM
TGI [39]: > 100 µM
TGI [54]: > 10 µM
TGI [40]: 41.6 µM
TGI [41]: 35.8 µM
TGI [42]: 41.2 µM
TGI [55]: 33.5 µM
TGI [43]: 35.5 µM
TGI [44]: > 10 µM
TGI [45]: 42.4 µM
TGI [46]: 36.3 µM
TGI [56]: 35.8 µM
TGI [57]: > 100 µM
TGI [47]: > 100 µM
TGI [48]: 36.3 µM
